Entries after “also recorded” stand apart in the source; their conditions may differ.
Legend:
[1] = tested on: PAR4 Ala120 and Thr120 variants; experiment: PAR4-induced platelet activation, platelets of subjects of the 3 genotypes (FIG. 1); assay type: cell-based, human; details: subjects with and without the Thr120 variant (Ala/Ala, Ala/Thr, Thr/Thr)
Method: FIG. 1. Summary of results using all three PAR4 variants. […] Data are shown as the average of the percent of maximal activation, where maximal activation was the DMSO data.
[…] of mouse or PAC1 was added to each sample of platelets that contained compounds. 5 mL of compound was added to inhibitor samples. Tyrodes with 1% final concentration, DMSO were added to inhibitor samples with no controls. Each sample was incubated for two minutes. 5.5 mL of PAR4-AP was added to all samples except the no agonist control. Final concentrations of samples=[…]. Samples were gently mixed and sat at room temperature for 10 minutes. 50 mL of 2% paraformaldehyde was added to each sample and sat at room temperature for 10 minutes. 500 mL of Tyrodes were then added and samples were run of the C6 Accuri.

[2] = tested on: platelets expressing PAR4 Thr120; details: individuals expressing PAR4 Thr120; cited from earlier work
[3] = tested on: platelets expressing PAR4 Ala120; details: individuals expressing PAR4 Ala120; cited from earlier work

SMILES	blockade of PAR4-induced platelet activation [1]	blockade of PAR4-induced platelet activation ([1]; listed as VU478046-1)	inhibiting platelet aggregation [2]	inhibiting platelet aggregation [3]
Cn1c(CO)c(-c2ccccc2)c2cc([N+](=O)[O-])ccc21 [VU0099704-4]	effectively blocked; also recorded: greatest effective blockade	–	–	–
CCCNCc1c(-c2ccccc2)c2cc([N+](=O)[O-])ccc2n1C [VU0478046-1]	effectively blocked	greatest effective blockade	–	–
CNCc1c(-c2ccccc2)c2cc([N+](=O)[O-])ccc2n1C [VU0478944-1]	effectively blocked; also recorded: greatest effective blockade	–	–	–
COC(=O)[C@H](c1ccccc1Cl)N1CCc2sccc2C1 [clopidogrel]	–	–	not effective	selective

Reference: patent US10590126B2, “Non-selective protease activated receptor 4 ALA120THR isoform antagonist” (THOMAS JEFFERSON UNIVERSITY, priority 2015, dated 2020)
